According to patent US8822482B2, “Icotinib hydrochloride, synthesis, crystalline forms, pharmaceutical compositions, and uses thereof” (Beta Pharma, Inc., priority 2008, dated 2014):

Key:
[1] = test system: EGFR tyrosine kinase-mediated intracellular protein tyrosine phosphorylation in A431 cells; assay: Inhibition of EGFR-mediated protein phosphorylation at the cellular level (A431 cells, EGF-stimulated, anti-phosphotyrosine blot); format: cell-based; details: Homo sapiens
Experimental: Methods: The experiment utilized a high EGFR-expressing cell line, A431 (human epidermoid carcinoma). A431 cells in logarithmic growth phase were seeded into 12-well cell culture plates (5×10^5 cells/well); the cells were grown in DMEM cell culture medium (Gibco Company) containing 10% fetal calf serum (FCS) at 37° C. in 5% CO2 for 18 hours. The cells were washed twice with PBS buffer, and DMEM without FCS was then added. After incubating for 18 hours, Icotinib hydrochloride Crystalline Form I in dimethyl sulfoxide (DMSO) was added to individual wells at final concentrations of 0, 10, 50, 250 or 1000 nM. After incubating at 37° C. for 2.5 hours, 100 ng/ml of EGF was added to stimulate the cells for 5 minutes. Cells were then extracted in the presence 1 mM vanadate (inhibits dephosphorylation) to collect total cellular proteins, and proteins were resolved by 10% SDS-PAGE and transferred to nitrocellulose. Following detection of phosphorylated proteins with anti-phosphotyrosine antibodies (PY99 and 4G10, Upstate Biotech) and visualization with a horseradish peroxidase-labeled second antibody (Transduction Laboratories, Inc.) and ECL chemiluminescence (Amersham Corp.), bands were quantified by densitometry. Membranes were then stripped and incubated with anti-EGFR antibodies to compare amounts of EGFR in cells exposed to different concentrations of Icotinib hydrochloride Crystalline Form I as an internal control. Inhibition (%)=(1−kinase activity of the test group/kinase activity of control group)×100%

[2] = test system: A431 human epidermoid carcinoma; assay: Tumor cell growth inhibition in vitro, MTT assay; format: cell-based; details: A-431, A431, 96 hr
Experimental: (§1) Method: Cells (˜2×10^3) were seeded in 96-well plates in 200 μL of RPMI1640 cell culture medium supplemented with 10% FBS. After 24 hours at 37° C. and 5% CO2, the medium was replaced in quintuplicate wells with medium containing Icotinib hydrochloride Crystalline Form I dissolved in DMSO and then serial diluted, yielding final Icotinib concentrations of 0.05-300 μM. DMSO concentrations were less than 0.1% at the highest drug concentrations. Cells were incubated in medium alone with 0.1% DMSO as a negative control. Following a 96 hr incubation, the MTT [3-(4,5-dimethylthiazol-2-yl)-2,5-diphenyltetrazolium] colorimetric assay was performed using a microplate reader (reference wavelength 450 nm, detection wavelength 570 nm). The logarithm of drug concentration on the inhibition rate was linear, and the half inhibitory concentration of the drug (IC50) was obtained.

[3] = test system: A549 human non-small cell lung cancer cells; assay: Tumor cell growth inhibition in vitro, MTT assay; format: cell-based
Experimental: as §1

[4] = test system: BEL-7402 human hepatoma cells; assay: Tumor cell growth inhibition in vitro, MTT assay; format: cell-based
Experimental: as §1

[5] = test system: BGC-823 human gastric cancer cells; assay: Tumor cell growth inhibition in vitro, MTT assay; format: cell-based
Experimental: as §1

[6] = test system: H460 human lung adenocarcinoma cells; assay: Tumor cell growth inhibition in vitro, MTT assay; format: cell-based
Experimental: as §1

[7] = test system: HCT8 human colon cancer cells; assay: Tumor cell growth inhibition in vitro, MTT assay; format: cell-based
Experimental: as §1

[8] = test system: KB human epidermoid carcinoma cells; assay: Tumor cell growth inhibition in vitro, MTT assay; format: cell-based
Experimental: as §1

[9] = in vivo
Experimental: In addition, non-clinical pharmacokinetic studies of Icotinib hydrochloride Crystalline Form I in Beagle dogs and rats were conducted.

[10] = Pharmacokinetic study of the different crystalline forms and the free base in rats; format: in vivo, Wistar rats; details: for The area under the concentration-time curve (0-infinity) / The area under the concentration-time curve (0-t): fasted Wistar rats, oral suspension, dose equivalent to 35 mg/kg Icotinib hydrochloride, plasma, hydrochloride
Experimental: Drugs and reagents: Icotinib (free base) and Icotinib hydrochloride crystalline forms I, II, III, and IV were ground to fine particles. The material content (purity) was not less than 99.0%. Sodium carboxymethyl cellulose was medical supply graded. Experimental animals: Wistar rats, male and female, 150-220 g each. Pharmaceutical preparation: Weigh the appropriate amount of each substance and add sodium carboxymethyl cellulose to 0.5%. Prepare a suspension at a final concentration of 3.5 mg/mL in water. Administration and sample collection: Each suspension was administered orally to fasted Wistar rats at a dose equivalent to 35 mg/kg Icotinib hydrochloride in a dose volume of 10 ml/kg. […] After purification, samples were analyzed by high performance liquid chromatography. The chromatographic conditions utilized C18-silane bonded silica as stationary phase, 0.02 mol/L of sodium dihydrogen phosphate in acetonitrile (40:60, using sodium hydroxide solution to adjust pH to 5.0) as the mobile phase and a detection wavelength of 334 nm.

[11] = test system: drug metabolism enzymes

**Q.** For `C#Cc1cccc(Nc2ncnc3cc4c(cc23)OCCOCCOCCO4)c1.Cl` [4-[(3-ethynyl-phenyl)amino]-6,7-benzo-12-crown-quinazoline hydrochloride], which EC50 ([1]; A-431, read-out: median effective concentration (EC50)) is on record?
**A.** Its EC50 is ~0.05 µM.

**Q.** What about the inhibition at 0.01 µM ([1]; A-431, A431 cells, 10 nM, read-out: inhibition of EGF-induced intracellular protein tyrosine phosphorylation) of the same compound?
**A.** The inhibition at 0.01 µM was 5.4%.

**Q.** What about the inhibition at 0.05 µM ([1]; A-431, A431 cells, 50 nM, read-out: inhibition of EGF-induced intracellular protein tyrosine phosphorylation) of the same compound?
**A.** The inhibition at 0.05 µM was 52.9%.

**Q.** What about the inhibition at 0.25 µM ([1]; A-431, A431 cells, 250 nM, read-out: inhibition of EGF-induced intracellular protein tyrosine phosphorylation) of the same compound?
**A.** The inhibition at 0.25 µM was 61.9%.

**Q.** And the inhibition at 1 µM ([1]; A-431, A431 cells, 1000 nM, read-out: inhibition of EGF-induced intracellular protein tyrosine phosphorylation)?
**A.** The inhibition at 1 µM was 63.7%.

**Q.** What about the IC50 [2] of the same compound?
**A.** Its IC50 is 1 µM.

**Q.** And the IC50 ([3]; A549, 96 hr, listed as lcotinib hydrochloride Crystalline Form I, hydrochloride)?
**A.** Its IC50 is 12.2 µM.

**Q.** What about the IC50 ([3]; Homo sapiens, A549, 96 h) of the same compound?
**A.** Its IC50 is 12 µM.

**Q.** And the “activity against tumor cells (in words)” value ([4]; BEL-7402)?
**A.** Its value is “low activity”.

**Q.** What about the IC50 ([4]; Homo sapiens, BEL-7402, 96 hr, MTT) of the same compound?
**A.** Its IC50 is > 200 µM.

**Q.** What about the IC50 ([5]; BGC-823, 96 hr, listed as lcotinib hydrochloride Crystalline Form I, hydrochloride) of the same compound?
**A.** The IC50 was 4.06 µM.

**Q.** And the IC50 ([5]; Homo sapiens, BGC-823, 96 h)?
**A.** Its IC50 is 4 µM.

**Q.** And the IC50 ([6]; H460, 96 hr, listed as lcotinib hydrochloride Crystalline Form I, hydrochloride)?
**A.** The IC50 was 16.1 µM.

**Q.** And the IC50 ([6]; Homo sapiens, NCI-H460, 96 h)?
**A.** Its IC50 is 16 µM.

**Q.** What about the “activity against tumor cells (in words)” value ([7]; HCT8) of the same compound?
**A.** The value was “low activity”.

**Q.** What about the IC50 ([7]; Homo sapiens, HCT-8, HCT8, 96 hr, MTT) of the same compound?
**A.** The IC50 was > 200 µM.

**Q.** And the “activity against tumor cells (in words)” value [8]?
**A.** Its value is “low activity”.

**Q.** And the IC50 ([8]; Homo sapiens, 96 hr, MTT)?
**A.** The IC50 was 40.7 µM.

**Q.** What about the route of elimination [9] of the same compound?
**A.** The route of elimination was “mainly through fecal excretion”.

**Q.** What about the tissue distribution [9] of the same compound?
**A.** Its tissue distribution is “widely distributed to various tissues, but was low in brain tissue”.

**Q.** And the Tmax ([9]; Beagle (dogs), rat, dog, po)?
**A.** The Tmax was ~1 h.

**Q.** And the bioavailability ([9]; Beagle (dogs), rat, dog, po)?
**A.** Its bioavailability is 27 to 62%.

**Q.** What about the “area under the concentration-time curve (0-t) and (0-infinity) relative to the free base form” value ([10]; Wistar rats, oral, 35 mg/kg equivalent) of the same compound?
**A.** The value was “approximately 3 times”.

**Q.** And the “The area under the concentration-time curve (0-infinity)” value (from here on “The area … (0-infinity)”) ([10]; listed as Crystalline Form I)?
**A.** Its value is 93.73.

**Q.** What about the “The area under the concentration-time curve (0-t)” value (“The area … (0-t)” below) ([10]; listed as Crystalline Form I) of the same compound?
**A.** The value was 91.80.

**Q.** What about the “The area … (0-infinity)” value ([10]; listed as Crystalline Form II) of the same compound?
**A.** The value was 90.77.

**Q.** What about the “The area … (0-t)” value ([10]; listed as Crystalline Form II) of the same compound?
**A.** Its value is 88.28.

**Q.** And the “The area … (0-infinity)” value ([10]; listed as Crystalline Form III)?
**A.** Its value is 90.26.

**Q.** And the “The area … (0-t)” value ([10]; listed as Crystalline Form III)?
**A.** Its value is 89.23.

**Q.** And the “The area … (0-infinity)” value ([10]; listed as Crystalline Form IV)?
**A.** Its value is 90.23.

**Q.** What about the “The area … (0-t)” value ([10]; listed as Crystalline Form IV) of the same compound?
**A.** Its value is 86.29.

**Q.** What about the “inhibitory activity on drug metabolism enzymes” value [11] of the same compound?
**A.** Its value is “no inhibitory activity”.
